For experiment [1], the system named is normal human epidermal keratinocytes. Description: Ratiometric fura-2 live-cell calcium imaging of keratinocytes. Format: cell-based. Particulars: for % Responders (undifferentiated) Mean ± SEM or SD: growth conditions, saturating agonist (4αPDD 3 μM, camphor 10 mM, 2-APB 100 μM, capsaicin 1 μM, mustard oil 300 μM), SD for capsaicin and mustard oil; for cytoplasmic Ca2+ signals in undifferentiated keratinocytes: 0.15%, within 1 minute of perfusion, versus vehicle. On the procedure: (§1) Normal human keratinocytes were isolated from human foreskins by undergoing two enzymatic dissociation steps, first in dispase then in trypsin. Cells were cultured in EpiLife supplemented with human keratinocyte growth supplement (HKGS; Invitrogen). For all experiments with undifferentiated cells, keratinocytes were harvested or images at ˜75% confluency. Differentiation was induced by adding CaCl2 to the EpiLife media to reach a final [Ca2+] of 1.2 mM. Cells were typically cultured for 3 days under differentiation conditions before they were assayed. Keratinocytes were cultured for <5 passages. Purified Camphor (CAS #76-22-2), 2-APB (Tocris) or vehicle (1% EtOH)-containing media were used as indicated.
Human keratinocytes and SCC cells were washed in Ringer's solution (in mM: NaCl 140, KCl 5, D-glucose 10, HEPES 10, CaCl2 2, MgCl2 2, pH 7.2) and loaded with 5 μM fura-2AM and 1 μM pluronic (Invitrogen) for 30 minutes in the dark. During live-cell imaging, saturating concentrations of TRP agonists (10 mM Camphor, 100 μM 2-APB 1 μM Capsaicin, 300 μM Mustard oil or 3 μM 4αPDD) in Ringer's were used. Cells were imaged for 20 s to establish a baseline and then acutely treated with each agonist for 60 seconds. Imaging was performed on an Olympus IX81 microscope with a 20× (NA 0.17) objective and a Hamamatsu ORCA-R2 camera. 340- and 380-nm excitation and 540-nm emission filters were used to capture fura-2 fluorescence. Data are expressed as a ratio of fluorescent signals (340/380). All data acquisition was performed in MetaFluor. Data analysis was performed with custom algorithms in IgorPro. Cells with baseline levels ±2 SD above the mean were excluded from analysis as unhealthy. Responders were designated as cells whose 340/380 ratio was ≧20% above baseline.
TRP channels are selectively activated by endogenous and exogenous ligands at micromolar to millimolar concentrations. Since TRP channel activity increases over this range to allow graded Ca^2+ influx, receptor activity levels can be monitored by live-cell Ca^2+ imaging. A ratiometric calcium indicator (Fura-2) was employed to determine whether a panel of TRP-channel agonists elicited cytoplasmic calcium increases in human epidermal keratinocytes. (FIG. 1A-1E, FIG. 2A-2B, and Table 3).
Normal human keratinocytes were cultured in low-calcium media to promote proliferation or in 1.2-mM calcium media to induce differentiation. For live-cell imaging, keratinocytes were then washed and bathed in Ringer's solution containing 2 mM calcium so that calcium signals could be directly compared between cell populations.
In keratinocytes, increased intracellular calcium stimulates the terminal differentiation process. To determine whether camphor oil and its abundant constituents are directly bioactive on epithelial keratinocytes, a ratiometric Ca2+ indictor (Fura-2) was employed to test whether a panel of terpenes elicited cytoplasmic Ca2+ increases in undifferentiated human epidermal keratinocytes (FIG. 19A-19C). Keratinocytes were cultured according to our standard methods. For live-cell imaging, keratinocytes were bathed in Ringer's solution containing 2 mM Ca2+.

The conditions of experiment [2]: 0.5 to 5 percent ointment or liquid, once or twice a day for two to four weeks; cited from earlier work.
Experiment [3] relates to normal human keratinocytes. Description: Keratinocyte cell counts (DAPI), morphology and EdU proliferation assay after 24 h treatment. The note with it: in the presence of camphor. How it is done: as §1
Cells were treated with 2-APB or camphor for 24 hours at 37° C., exposed to EdU for 45 min, fixed and stained with DAPI for cell counting. EdU Click-It assays (Invitrogen) were used to assess cell-cycle entry. The cells were then fixed and stained with DAPI. Three fields per well were assayed via a 20× objective and there were 4 wells per treatment in each experiment. EdU=5-ethynyl-2′-deoxyuridine.
As Ca^2+ triggers the commitment switch from proliferation to differentiation in keratinocytes, it was reasoned that increasing intracellular calcium by incubating keratinocytes in TRP agonists might be sufficient to induce this cell-fate switch in low-calcium growth media. To test this hypothesis, normal human keratinocytes were cultured for 24 hours under low-Ca^2+ conditions in the presence of low (12.5 μM), half-maximal (50 μM) and saturating (100 μM) concentrations of 2-APB (FIG. 3A) or camphor (0-8 mM) (FIG. 3E). These TRP agonists were chosen because they reliably elicited intracellular calcium signaling in normal human keratinocytes (FIG. 1A-1E).
As camphor can activate both TRPV3 and TRPV1 channels, these experiments were repeated in the presence of a specific TRPV1 antagonist, AMG-9810 (Gavva et al., 2005).

The test system of a further experiment is TRPV3. Particulars: reported in literature; cited from earlier work.
The subject of a further experiment is skin tumors. The note with it: mouse, in vivo; cited from earlier work.
The test system of another experiment is normal keratinocytes. Description: In vivo keratinocyte proliferation (EdU, flow cytometry) in healthy mouse skin. Details: species or system mice. Particulars: 20% topical, five consecutive days. How it is done: Age matched FVB (female mice purchased from Jackson labs) aged 6-8 weeks were shave on their dorsal sides. Mice were then treated for five consecutive days with vehicle, 20% camphor white oil, 20% eucalyptol, 20% α-pinene, 20% dipentene, or 20% γ-terpinene (2-6 mice per group). Mice were then injected with EdU and sacrificed one hour later. The epidermis was isolated and stained for Itgα6, Sca1+, and EDU. Itgα6+Sca1+EdU+ cells were then identified on a flow cytometer.
To test whether effects of camphor white oil on normal keratinocytes are TrpV3 dependent proliferation in TrpV3 mutant and wild type mice treated with camphor oil was analyzed. TrpV3 mutant and wild type mice aged 6-8 weeks were shaved on their dorsal sides. Mice were then treated for five consecutive days with vehicle or 20% camphor oil (4-5 mice per group). Mice were then injected with EdU (5-ethynyl-2′-deoxyuridine) and sacrificed one hour later. The epidermis was isolated and stained for Itga6, Sca1, and EdU. Itga6+Sca1+EdU+ cells were then identified on a flow cytometer to identify cells in the intrafollicular epidermis that are actively proliferating.

Experiment [4] relates to precancerous lesions and SCCs. Format: in vivo. Particulars: 20% wt/wt in acetone, topical once daily, five weeks.
Setting [5] is: responders F340:F380 increase ≧20%.

Molecules are shown by their SMILES. “Also recorded” adds a separate entry of the source. Like-named read-outs stand apart in the source and are kept apart here. Bounds are passed on as bounds.

In the case of `CCCCCCCCCC(=O)O[C@@H]1[C@@H](C)[C@@]2(O)[C@@H](C=C(CO)C[C@@]3(O)C(=O)C(C)=C[C@@H]23)[C@@H]2C(C)(C)[C@]12OC(=O)CCCCCCCCC` [4αPDD, 4α-phorbol-12,13 didecanoate, reference compound], in experiment [1] (differentiated in 1.2 mM Ca2+, responders F340:F380 increase ≧20%, 4αPDD 3 μM, camphor 10 mM, 2-APB 100 μM), the “% Responders (differentiated) Mean ± SEM” value amounted to 70.8 ± 11.1%. The “% Responders (undifferentiated) Mean ± SEM or SD” value in experiment [1] (setting [5]) stood at 84.8 ± 1.6%. Further, the “keratinocytes with robust increases in intracellular Ca2+” value in experiment [1] (growth or differentiation conditions) was above 70%.

For the molecule `O=c1[nH]cc(F)c(=O)[nH]1` [5-fluorouracil], the cure rates result in experiment [2] is recorded as “up to 93%”. Take `CC(C)(C)c1ccc(/C=C/C(=O)Nc2ccc3c(c2)OCCO3)cc1` [AMG-9810, (E)-3-(4-t-butylphenyl)-N-(2,3-dihydrobenzo[b][1,4]dioxin-6-yl)acrylamide, reference compound]: the “effect of TRPV1 inhibition on camphor's effects on keratinocyte proliferation” value in experiment [3] is “did not alter”. For the molecule `CC1(C)C2CCC1(C)C(O)C2` (centres unmarked) [Borneol, reference compound], the “effectiveness as a TRPV3 agonist relative to camphor” value in the experiment with TRPV3 is on record as “more effective than camphor”. Consider `COc1cc(CNC(=O)CCCC/C=C/C(C)C)ccc1O` [Capsaicin, reference compound], for which the “% Responders (undifferentiated) Mean ± SEM or SD” value in experiment [1] (setting [5]) is listed as 2.3+/−2.6%. Consider `CC1(C)C2CCC1(CS(=O)(=O)O)C(=O)C2=Cc1ccc(C=C2C(=O)C3(CS(=O)(=O)O)CCC2C3(C)C)cc1` [Ecamsule, Terephthalylidene Dicamphor Sulfonic Acid], for which, in the experiment on skin tumors, the “Results of safety: against skin tumors in mice” value is given as “Protects”. As for `C=CCN=C=S` [Mustard oil, reference compound], the “% Responders (undifferentiated) Mean ± SEM or SD” value in experiment [1] (setting [5]) is recorded as 0.6 ± 1.2%^; in experiment [1] (responders F340:F380 increase ≧20%, listed as Mustard Oil), 0.6+/−1.2%; in experiment [1] (responders F340:F380 increase ≧20%, listed as mustard oil), 0.6+/−1.2%.

As to `C=C(C)[C@H]1CC=C(C)CC1` [dipentene, Dipentene], in the experiment on normal keratinocytes, the “keratinocyte proliferation (Itgα6+Sca1+EdU+ cells) compared with vehicle” value was “significant increases”. Also, the “premalignant tumors per mouse versus vehicle” value in experiment [4] was “antitumor effects”; in experiment [4] (listed as Dipentene) it was “most striking tumor reductions”. In the case of `CC12CCC(CC1)C(C)(C)O2` [eucalyptol, Eucalyptol], in experiment [1], the “cytoplasmic Ca2+ signals in undifferentiated keratinocytes” value was “no effects”. Also, in the experiment on normal keratinocytes, the “keratinocyte proliferation (Itgα6+Sca1+EdU+ cells) compared with vehicle” value is given as “significant increases”.

For `CC1=CCC2CC1C2(C)C` (stereo not drawn) [α-pinene, α-Pinene], the “cytoplasmic Ca2+ signals in undifferentiated keratinocytes” value in experiment [1] is on record as “stimulated detectable calcium signals; also recorded: induced calcium increases”. Moreover, in the experiment on normal keratinocytes, the “keratinocyte proliferation (Itgα6+Sca1+EdU+ cells) compared with vehicle” value is given as “significant increases”. The “premalignant tumors per mouse versus vehicle” value in experiment [4] was “antitumor effects; also recorded: most striking tumor reductions”. On to `CC1=CCC(C(C)C)=CC1` [γ-terpinene, γ-Terpinene], for which the “keratinocyte proliferation (Itgα6+Sca1+EdU+ cells) compared with vehicle” value in the experiment on normal keratinocytes is recorded as “significant increases”.

Source of the values: patent US20160051493A1, “METHODS OF TREATMENT OF KERATINOCYTE-DERIVED LESIONS” (THE TRUSTEES OF COLUMBIA UNIVERSITY IN THE CITY OF NEW YORK, priority 2012, published 2016).
